Among the data in patent publication US10508120B2, “TYK2 inhibitors and uses thereof” (Nimbus Lakshmi, Inc., priority 2017, dated 2019) are IC50, inhibition and Kd values, retold here.

For assay [1], the target named is JAK2/JAK2 homdimeric complex (Homo sapiens (Human), UniProt O60674). The assay can be described thus: GM-CSF Induced pSTAT5 in Human PBMC. Type of assay: cell-based. The note with it: GM-CSF 5 ng/mL for 20 minutes, pSTAT5 by MSD, read-out: PBMC_GMCSF_pSTAT5 IC50.
Assay [2] concerns the target Tyk2 kinase domain (DH1) (Homo sapiens (Human), UniProt P29597). The assay can be described thus: Tyk2 Radioactive Kinase Assay. Type of assay: biochemical. The note with it: 10 μM compound; 10 μM ATP; read-out: Tyk2 JH1% Inhibition @ 10 μM. In a few lines:
(§1)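 Single-point screen: 10 μM test compound, radioactive kinase read-out, percent inhibition reported for each kinase domain.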

The target of assay [3] is JAK2 kinase domain (JH1) (Homo sapiens (Human), UniProt O60674). Nature of the assay: JAK2 Radioactive Kinase Assay. The class given is biochemical. As to conditions: 10 μM compound; 10 μM ATP; read-out: JAK2 JH1% Inhibition @ 10 μM. In a few lines: as §1
Assay [4] concerns the target human TYK2 (JH2domain-pseudokinase) (Homo sapiens (Human), UniProt P29597). Nature of the assay: TYK2 JH2 Domain Binding Assay (KINOMEscan). In a few lines: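 Kds, run in duplicate, came from Hill fits (slope fixed at −1) of an 11-point 3-fold dilution series starting at 30,000 nM. Bead-retained TYK2 JH2 (aa G556–D888)–NFkB DBD fusion, DNA-tagged and expressed in HEK293 cells, was read by qPCR after 1 h room-temperature binding in 0.9% DMSO.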

Tyk2 kinase domain (DH1), sequence (P29597 897-1176): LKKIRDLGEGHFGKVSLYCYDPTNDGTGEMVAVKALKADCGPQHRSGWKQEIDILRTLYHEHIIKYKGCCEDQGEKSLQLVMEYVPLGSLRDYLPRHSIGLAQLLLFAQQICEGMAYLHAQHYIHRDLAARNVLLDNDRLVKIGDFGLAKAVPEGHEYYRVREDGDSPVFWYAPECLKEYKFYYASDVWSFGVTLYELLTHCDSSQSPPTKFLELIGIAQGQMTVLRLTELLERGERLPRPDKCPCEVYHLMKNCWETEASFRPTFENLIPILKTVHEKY
JAK2/JAK2 homdimeric complex, sequence (O60674 whole entry, the tested form may be a part): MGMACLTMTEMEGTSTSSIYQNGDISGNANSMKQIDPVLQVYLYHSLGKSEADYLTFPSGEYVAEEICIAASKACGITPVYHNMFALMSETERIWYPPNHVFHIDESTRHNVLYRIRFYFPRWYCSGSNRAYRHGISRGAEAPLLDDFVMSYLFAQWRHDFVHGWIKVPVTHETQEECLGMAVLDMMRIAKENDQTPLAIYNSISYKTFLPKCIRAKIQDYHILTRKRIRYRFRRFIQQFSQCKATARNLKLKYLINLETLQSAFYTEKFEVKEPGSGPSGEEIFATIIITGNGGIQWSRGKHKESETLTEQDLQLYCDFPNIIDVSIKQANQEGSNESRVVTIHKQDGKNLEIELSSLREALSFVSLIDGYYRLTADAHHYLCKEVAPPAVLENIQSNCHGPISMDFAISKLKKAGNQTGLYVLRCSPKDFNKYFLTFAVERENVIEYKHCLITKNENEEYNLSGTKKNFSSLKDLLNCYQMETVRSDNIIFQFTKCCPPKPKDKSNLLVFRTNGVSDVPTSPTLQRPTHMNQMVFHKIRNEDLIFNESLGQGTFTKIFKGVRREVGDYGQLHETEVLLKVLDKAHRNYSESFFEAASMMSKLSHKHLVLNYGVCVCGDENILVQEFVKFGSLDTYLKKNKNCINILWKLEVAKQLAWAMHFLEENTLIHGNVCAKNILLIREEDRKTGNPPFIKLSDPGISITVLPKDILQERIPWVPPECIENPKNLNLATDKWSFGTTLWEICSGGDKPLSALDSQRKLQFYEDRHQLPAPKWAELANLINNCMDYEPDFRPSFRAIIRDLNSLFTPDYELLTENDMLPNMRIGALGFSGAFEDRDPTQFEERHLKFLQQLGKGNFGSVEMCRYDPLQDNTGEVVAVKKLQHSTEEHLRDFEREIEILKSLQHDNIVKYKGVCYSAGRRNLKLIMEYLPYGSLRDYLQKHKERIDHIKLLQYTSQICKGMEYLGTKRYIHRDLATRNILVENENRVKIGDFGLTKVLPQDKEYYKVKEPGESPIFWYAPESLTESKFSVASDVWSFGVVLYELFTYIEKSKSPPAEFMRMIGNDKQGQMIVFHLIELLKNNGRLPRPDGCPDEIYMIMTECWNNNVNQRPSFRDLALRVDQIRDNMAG
JAK2/JAK2 homdimeric complex, sequence (P32927 17-897 partner): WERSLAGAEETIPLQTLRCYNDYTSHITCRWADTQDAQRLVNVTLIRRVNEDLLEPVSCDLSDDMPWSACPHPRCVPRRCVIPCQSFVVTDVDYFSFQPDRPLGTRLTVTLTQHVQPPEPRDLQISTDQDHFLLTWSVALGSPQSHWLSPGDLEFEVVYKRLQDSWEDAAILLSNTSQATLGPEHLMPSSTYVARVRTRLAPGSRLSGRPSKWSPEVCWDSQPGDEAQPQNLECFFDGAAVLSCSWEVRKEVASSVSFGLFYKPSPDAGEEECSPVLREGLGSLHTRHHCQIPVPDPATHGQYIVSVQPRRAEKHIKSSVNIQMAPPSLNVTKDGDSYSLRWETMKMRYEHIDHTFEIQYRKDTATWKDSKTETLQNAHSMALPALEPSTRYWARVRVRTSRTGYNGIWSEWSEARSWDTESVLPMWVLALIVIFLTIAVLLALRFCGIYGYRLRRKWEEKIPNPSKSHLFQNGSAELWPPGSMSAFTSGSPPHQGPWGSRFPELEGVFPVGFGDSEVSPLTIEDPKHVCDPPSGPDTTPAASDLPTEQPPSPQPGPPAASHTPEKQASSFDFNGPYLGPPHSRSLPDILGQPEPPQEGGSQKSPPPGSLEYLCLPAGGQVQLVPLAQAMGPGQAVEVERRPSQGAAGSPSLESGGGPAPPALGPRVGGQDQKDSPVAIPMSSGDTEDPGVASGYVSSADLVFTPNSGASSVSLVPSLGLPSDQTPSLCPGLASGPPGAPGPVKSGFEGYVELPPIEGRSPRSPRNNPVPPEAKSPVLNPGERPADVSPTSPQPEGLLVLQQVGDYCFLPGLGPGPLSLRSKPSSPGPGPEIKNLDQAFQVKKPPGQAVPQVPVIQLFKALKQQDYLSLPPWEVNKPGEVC
JAK2 kinase domain (JH1), sequence (O60674 849-1124): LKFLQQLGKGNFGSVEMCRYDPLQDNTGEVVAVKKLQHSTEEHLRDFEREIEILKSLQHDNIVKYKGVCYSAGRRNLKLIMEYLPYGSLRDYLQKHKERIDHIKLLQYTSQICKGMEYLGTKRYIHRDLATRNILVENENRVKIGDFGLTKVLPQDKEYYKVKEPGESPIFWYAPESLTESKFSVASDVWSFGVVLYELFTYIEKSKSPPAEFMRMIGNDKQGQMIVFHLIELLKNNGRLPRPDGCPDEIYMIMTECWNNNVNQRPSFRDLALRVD
human TYK2 (JH2domain-pseudokinase), sequence (P29597 556-888): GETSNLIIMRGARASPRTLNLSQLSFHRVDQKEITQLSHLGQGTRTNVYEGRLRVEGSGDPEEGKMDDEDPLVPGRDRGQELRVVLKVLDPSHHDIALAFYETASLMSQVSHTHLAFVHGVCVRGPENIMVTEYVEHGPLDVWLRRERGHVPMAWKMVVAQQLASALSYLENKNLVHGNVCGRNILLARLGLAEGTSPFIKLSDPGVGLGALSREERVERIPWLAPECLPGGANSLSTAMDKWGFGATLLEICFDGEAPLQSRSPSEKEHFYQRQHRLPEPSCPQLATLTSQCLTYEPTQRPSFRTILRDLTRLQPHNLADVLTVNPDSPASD

For `CNc1cc(Nc2cccn([C@@H]3CC[C@H]3OC)c2=O)nc2c(C(=O)N[C@@H]3C[C@@H]3F)cnn12` [I-1022], the IC50 (as a rule, the point on the concentration scale where inhibition reaches its midpoint) in assay [1] is over 12500 nM. Besides, the inhibition at 10 µM in assay [2] and in assay [3] was under 50% each time. The Kd (commonly the concentration at which binding is half-saturated) in assay [4] is under 0.2 nM.
Take `CNc1cc(Nc2cccn([C@H]3CCC[C@H](OC)C3)c2=O)nc2c(C(=O)NC3CC3)cnn12` [I-1025]: in assay [1], the IC50 is over 50000 nM. Also, the inhibition at 10 µM in assay [2] and in assay [3] was under 50% each time. Further, in assay [4], the Kd is under 0.2 nM.
As for `CNc1cc(Nc2cccn([C@H]3CCC[C@H](OC)C3)c2=O)nc2c(C(=O)NCC(C)(C)CO)cnn12` [I-1027], the IC50 in assay [1] was over 50000 nM. For the same compound, the inhibition at 10 µM in assay [2] and in assay [3] was under 50% throughout. This compound also registered a Kd in assay [4] of under 0.2 nM.
As for `CNc1cc(Nc2cccn([C@@H]3CCC[C@@H](O)C3)c2=O)nc2c(C(=O)N[C@@H]3C[C@@H]3F)cnn12` [I-1029], the IC50 in assay [1] is over 2500 nM. Moreover, the inhibition at 10 µM in assay [2] and in assay [3] was under 50% each time. The Kd in assay [4] was under 0.2 nM.
For `CNc1cc(Nc2cccn(-c3ccccc3F)c2=O)nc2c(C(=O)N[C@H]3CC[C@H]3O)cnn12` [I-1035], in assay [1], the IC50 was over 2500 nM. In addition, the inhibition at 10 µM in assay [2] and in assay [3] was under 50% each time. The Kd in assay [4] was under 0.2 nM.
Regarding `CNc1cc(Nc2cccn(-c3ccccc3F)c2=O)nc2c(C(=O)N[C@H]3CC[C@@H]3O)cnn12` [I-1038], the IC50 in assay [1] is over 50000 nM. Also, the inhibition at 10 µM in assay [2] and in assay [3] was under 50% each time. The compound further showed a Kd in assay [4] of under 0.2 nM.
For `CNc1cc(Nc2cccn([C@H]3CCC[C@H](OC)C3)c2=O)nc2c(C(=O)N[C@@H]3CC3F)cnn12` (some centres unmarked) [I-1042], in assay [1], the half-inhibitory concentration (IC50) was over 2500 nM. The inhibition at 10 µM in assay [2] and in assay [3] was under 50% in each case. The Kd in assay [4] was under 0.2 nM.
`CNc1cc(-c2cn(C3CCOCC3)c3ncccc23)nc2c(C(=O)NC3CCC3O)cnn12` (centres unmarked) [I-1048, N-(2-hydroxycyclobutyl)-7-(methylamino)-5-(1-(tetrahydro-2H-pyran-4-yl)-1H-pyrrolo[2,3-b]pyridin-3-yl)pyrazolo[1,5-a]pyrimidine-3-carboxamide]: the IC50 in assay [1] was over 2500 nM. Further, the inhibition at 10 µM in assay [2] and in assay [3] was under 50% in each case. In addition, in assay [4], the Kd was under 0.2 nM.
On to `CNc1cc(Nc2cccn([C@H]3CCN(CCF)C3)c2=O)nc2c(C(=O)N[C@H]3CC[C@@H]3OC)cnn12` [I-1050, 5-((1-((S)-1-(2-fluoroethyl)pyrrolidin-3-yl)-2-oxo-1,2-dihydropyridin-3-yl)amino)-N-((1 S,2S)-2-methoxycyclobutyl)-7-(methylamino)pyrazolo[1,5-a]pyrimidine-3-carboxamide], for which the half-maximal inhibitory concentration (IC50) in assay [1] was over 50000 nM. The inhibition at 10 µM in assay [2] and in assay [3] was under 50% in each case. The Kd in assay [4] was under 0.2 nM.
On to `CNc1cc(Nc2cccc3ocnc23)nc2c(C(=O)NC3CC[C@@H]3OC)cnn12` (some centres unmarked) [I-1051, 5-(benzo[d]oxazol-4-ylamino)-N-(2-methoxycyclobutyl)-7-(methylamino) pyrazolo[1,5-a]pyrimidine-3-carboxamide], for which the IC50 in assay [1] is over 50000 nM. Besides, the inhibition at 10 µM in assay [2] and in assay [3] was under 50% each time. Besides, the Kd in assay [4] is under 0.2 nM.
Regarding `CNc1cc(Nc2cccn3ccnc23)nc2c(C(=O)N[C@H]3CC[C@@H]3OC)cnn12` [I-1052], the half-maximal inhibitory concentration (IC50) in assay [1] is over 50000 nM. The inhibition at 10 µM in assay [2] and in assay [3] was under 50% each time. The compound also yielded a dissociation constant (Kd) in assay [4] of under 0.2 nM.
Take `CNc1cc(-c2cn(C(C)C)c3ncc(F)cc23)nc2c(C(=O)N[C@H]3CC[C@@H]3OC)cnn12` [I-1053, 5-(5-fluoro-1-isopropyl-1H-pyrrolo[2,3-b]pyridin-3-yl)-N-((1S,2S)-2-methoycyclobutyl)-7-(methylamino)pyrazolo[1,5-a]pyrimidine-3-carboxamide]: the concentration for half-maximal inhibition (IC50) in assay [1] was over 12500 nM. Besides, the inhibition at 10 µM in assay [2] and in assay [3] was under 50% throughout. Moreover, in assay [4], the Kd was under 0.2 nM.
Regarding `CNc1cc(Nc2cccn([C@H]3CCCC[C@H]3O)c2=O)nc2c(C(=O)N[C@@H]3CC[C@H]3OC)cnn12` [I-1057], the IC50 in assay [1] is over 50000 nM. Besides, the inhibition at 10 µM in assay [2] and in assay [3] was under 50% in each case. The Kd in assay [4] was under 0.2 nM.
For `CNc1cc(Nc2cccn([C@H]3CCCN(CCF)C3)c2=O)nc2c(C(=O)N[C@@H]3CC[C@H]3OC)cnn12` [I-1059], the IC50 in assay [1] was over 50000 nM. The inhibition at 10 µM in assay [2] and in assay [3] was under 50% throughout. This compound also had a Kd in assay [4] of under 0.2 nM.
As for `CNc1cc(Nc2cccn([C@H]3CCC[C@H](O)C3)c2=O)nc2c(C(=O)N[C@H]3CC[C@@H]3OC)cnn12` [I-1063], in assay [1], the IC50 was over 50000 nM. Also, the inhibition at 10 µM in assay [2] and in assay [3] was under 50% each time. For the same compound, the Kd in assay [4] is under 0.2 nM.
As for `CNc1cc(Nc2cccn(-c3cnn(C)c3F)c2=O)nc2c(C(=O)N[C@H]3CC[C@@H]3OC)cnn12` [I-1066], the IC50 in assay [1] is over 50000 nM. For the same compound, the inhibition at 10 µM in assay [2] and in assay [3] was under 50% in each case. In assay [4], this compound displayed a Kd of under 0.2 nM.
Take `CNc1cc(Nc2cccn(-c3ncc(C)s3)c2=O)nc2c(C(=O)N[C@@H]3CC[C@H]3O)cnn12` [I-1070]: the IC50 in assay [1] was over 12500 nM. Also, the inhibition at 10 µM in assay [2] and in assay [3] was under 50% in each case. For the same compound, in assay [4], the equilibrium dissociation constant (Kd) is under 0.2 nM.
Take `CNc1cc(Nc2cccn(-c3ncc(C)s3)c2=O)nc2c(C(=O)N[C@@H]3CC[C@@H]3O)cnn12` [I-1073]: the half-inhibitory concentration (IC50) in assay [1] is over 50000 nM. Further, the inhibition at 10 µM in assay [2] and in assay [3] was under 50% in each case. Besides, in assay [4], the Kd is under 0.2 nM.
As to `CNc1cc(Nc2cccn([C@@H]3CCC[C@H](OC)C3)c2=O)nc2c(C(=O)N[C@@H]3CC[C@H]3OC)cnn12` [I-1082], in assay [1], the IC50 was over 50000 nM. Besides, the inhibition at 10 µM in assay [2] and in assay [3] was under 50% throughout. This compound also returned a Kd in assay [4] of under 0.2 nM.
As to `CNc1cc(Nc2cccn([C@@H]3CC[C@H]3O)c2=O)nc2c(C(=O)N[C@H]3CC[C@@H]3OC)cnn12` [I-1093], in assay [1], the IC50 is over 50000 nM. In addition, the inhibition at 10 µM in assay [2] and in assay [3] was under 50% throughout. Further, the Kd in assay [4] was under 0.2 nM.
On to `CNc1cc(Nc2cccn([C@H]3CC[C@@H]3O)c2=O)nc2c(C(=O)N[C@H]3CC[C@@H]3OC)cnn12` [I-1094], for which the IC50 in assay [1] was over 50000 nM. Besides, the inhibition at 10 µM in assay [2] and in assay [3] was under 50% in each case. Also, in assay [4], the Kd was under 0.2 nM.
For `CNc1cc(Nc2cccn([C@@H]3CCCN(CCF)C3)c2=O)nc2c(C(=O)N[C@@H]3CC[C@H]3OC)cnn12` [I-1095], the IC50 in assay [1] is over 50000 nM. The inhibition at 10 µM in assay [2] and in assay [3] was under 50% in each case. Further, in assay [4], the equilibrium dissociation constant (Kd) was under 0.2 nM.
In the case of `CNc1cc(Nc2cccn([C@@H]3CCN(CCF)C3)c2=O)nc2c(C(=O)NC3CCC3OC)cnn12` (stereo partly drawn) [I-1096, 5-((1-((R)-1-(2-fluoroethyl)pyrrolidin-3-yl)-2-oxo-1,2-dihydropyridin-3-yl)amino)-N-(2-methoxycyclobutyl)-7-(methylamino)pyrazolo[1,5-a]pyrimidine-3-carboxamide], the IC50 in assay [1] was over 50000 nM. In addition, the inhibition at 10 µM in assay [2] and in assay [3] was under 50% each time. The compound further registered a Kd in assay [4] of under 0.2 nM.
With `CNc1cc(Nc2cccn([C@H]3CCCC[C@H]3OC)c2=O)nc2c(C(=O)N[C@H]3CC[C@@H]3OC)cnn12` [I-1097], the IC50 in assay [1] is over 50000 nM. Further, the inhibition at 10 µM in assay [2] and in assay [3] was under 50% throughout. For the same compound, the Kd in assay [4] is under 0.2 nM.
Take `CNc1cc(Nc2cccn([C@H]3CCC[C@H](OC)C3)c2=O)nc2c(C(=O)N[C@H]3CC[C@@H]3OC)cnn12` [I-1098]: the IC50 in assay [1] was over 50000 nM. In addition, the inhibition at 10 µM in assay [2] and in assay [3] was under 50% each time. This compound had a Kd in assay [4] of under 0.2 nM.
Consider `CNc1cc(Nc2cccn([C@@H]3CCC[C@@H](OC)C3)c2=O)nc2c(C(=O)N[C@H]3CC[C@@H]3OC)cnn12` [I-1099], for which the IC50 in assay [1] was over 50000 nM. For the same compound, the inhibition at 10 µM in assay [2] and in assay [3] was under 50% throughout. In assay [4], this compound gave a Kd of under 0.2 nM.
For the compound `CNc1cc(Nc2cccn([C@H]3CCC[C@H]3O)c2=O)nc2c(C(=O)N[C@H]3CC[C@@H]3OC)cnn12` [I-1101], in assay [1], the IC50 is over 50000 nM. In addition, the inhibition at 10 µM in assay [2] and in assay [3] was under 50% throughout. Besides, in assay [4], the Kd is under 0.2 nM.
As for `CNc1cc(Nc2cccn3cnnc23)nc2c(C(=O)N[C@H]3CC[C@@H]3OC)cnn12` [I-1102], in assay [1], the 50% inhibitory concentration (IC50) was over 2500 nM. In addition, the inhibition at 10 µM in assay [2] and in assay [3] was under 50% each time. Moreover, in assay [4], the Kd is under 0.2 nM.
In the case of `CNc1cc(Nc2cccn([C@H]3CC[C@](C)(OC)CC3)c2=O)nc2c(C(=O)N[C@H]3CC[C@@H]3OC)cnn12` [I-1105], in assay [1], the IC50 was over 50000 nM. The inhibition at 10 µM in assay [2] and in assay [3] was under 50% each time. Further, in assay [4], the Kd is under 0.2 nM.
